Values quoted from earlier work, collected in patent US11759493B2, “Composition for the treatment of constipation” (NEILOS S.R.L., priority 2017, dated 2023).

Columns and labels:
[1] = patients affected by constipation, meta-analysis
[2] = 20 and 40 g per day, both study groups
[3] = 10 g, versus placebo, healthy individuals

Row | SMILES | evacuation frequency and feces consistency [1] | percentage of people involved in the studies affected by diarrhea (20 g of active ingredient) | diarrhea (dosage of 10 g per day) | frequency, volume and weight of feces [2] | transit in the small intestine [3]
1 | OC[C@@H](O)[C@@H](O[C@@H]1O[C@H](CO)[C@H](O)[C@H](O)[C@H]1O)[C@H](O)[C@@H](O)CO [lactitol, 4-O-β-D-galactopyranosyl-D-glucitol] | increase the evacuation frequency and the feces consistency | 5-20% | absence of diarrhea |  | 
2 | OC[C@H]1O[C@@H](O[C@@H]2[C@@H](CO)OC(O)(CO)[C@H]2O)[C@H](O)[C@@H](O)[C@H]1O (mixture of isomers) [lactulose] |  |  |  | significant increase | accelerating effect
